Laboratory results: the NIST ThermoML archive (doi:10.1021/je800817b)

Assay: xn = mol fraction of the nth substance listed
Settings: 101 kPa, Liquid, x1 = 0

SMILES	binary diffusion coefficient (283 K) [m2/s]	binary diffusion coefficient (298 K) [m2/s]	binary diffusion coefficient (313 K) [m2/s]	binary diffusion coefficient (323 K) [m2/s]	binary diffusion coefficient (333 K) [m2/s]	binary diffusion coefficient (303 K) [m2/s]
CCCCCCCCn1cc[n+](C)c1.O=S(=O)([N-]S(=O)(=O)C(F)(F)F)C(F)(F)F + CC#N	1.62e-09	2e-09	2.31e-09	2.57e-09	2.86e-09	–
CCCCCC[n+]1ccn(C)c1.O=S(=O)([N-]S(=O)(=O)C(F)(F)F)C(F)(F)F + CC#N	1.67e-09	2.1e-09	2.51e-09	2.74e-09	2.99e-09	–
CCCC[n+]1ccn(C)c1.O=S(=O)([N-]S(=O)(=O)C(F)(F)F)C(F)(F)F + CC#N	1.7e-09	2.22e-09	2.7e-09	3.07e-09	3.45e-09	–
CCn1cc[n+](C)c1.O=S(=O)([N-]S(=O)(=O)C(F)(F)F)C(F)(F)F + CC#N	1.79e-09	2.29e-09	2.78e-09	3.15e-09	3.48e-09	–
CCCCCCCCn1cc[n+](C)c1.O=S(=O)([N-]S(=O)(=O)C(F)(F)F)C(F)(F)F + CO	9.9e-10	1.32e-09	1.59e-09	1.83e-09	2.12e-09	–
CCCCCC[n+]1ccn(C)c1.O=S(=O)([N-]S(=O)(=O)C(F)(F)F)C(F)(F)F + CO	1.05e-09	1.34e-09	1.64e-09	1.99e-09	2.21e-09	–
CCCC[n+]1ccn(C)c1.O=S(=O)([N-]S(=O)(=O)C(F)(F)F)C(F)(F)F + CO	1.11e-09	1.48e-09	1.88e-09	2.15e-09	2.43e-09	–
CCn1cc[n+](C)c1.O=S(=O)([N-]S(=O)(=O)C(F)(F)F)C(F)(F)F + CO	1.17e-09	1.6e-09	2.03e-09	2.3e-09	2.69e-09	–
CCCCCCCCn1cc[n+](C)c1.O=S(=O)([N-]S(=O)(=O)C(F)(F)F)C(F)(F)F + O	5.7e-10	8.1e-10	1.05e-09	1.31e-09	1.47e-09	8.7e-10
CCCCCC[n+]1ccn(C)c1.O=S(=O)([N-]S(=O)(=O)C(F)(F)F)C(F)(F)F + O	5.8e-10	8.3e-10	1.15e-09	1.39e-09	1.63e-09	9e-10
CCCC[n+]1ccn(C)c1.O=S(=O)([N-]S(=O)(=O)C(F)(F)F)C(F)(F)F + O	6e-10	8.5e-10	1.16e-09	1.47e-09	1.74e-09	9.6e-10
CCn1cc[n+](C)c1.O=S(=O)([N-]S(=O)(=O)C(F)(F)F)C(F)(F)F + O	6.1e-10	8.9e-10	1.27e-09	1.55e-09	1.85e-09	9.8e-10
CCCCn1cc[n+](C)c1.[Cl-] [1-butyl-3-methylimidazolium chloride] + O	8.3e-10	1.18e-09	1.66e-09	2.01e-09	2.4e-09	1.32e-09
CCCCn1cc[n+](C)c1.F[B-](F)(F)F [1-butyl-3-methylimidazolium tetrafluoroborate] + O	7.7e-10	1.14e-09	1.55e-09	1.97e-09	2.26e-09	1.28e-09
